Laboratory results: patent US20110098257A1, “DERIVATIVES OF 4- OR 5-AMINOSALICYLIC ACID” (ANTIBE THERAPEUTICS INC., priority 2005, published 2011)

Assays:
COX-1 mRNA = experiment: Colonic mRNA expression by RT-PCR in TNBS-induced colitis; type: in vivo, mice; settings: dose equimolar to mesalamine 50 mg/kg; FIG. 13
Description: The same model was used as described above. In this example, the effects of mesalamine (50 mg/kg) were compared to those of equimolar doses of Compound XXXV. In addition to measuring the severity of colitis by measuring disease activity score and MPO activity, tissues were processed for measurement of a number of genes for inflammatory cytokines and other mediators.
In particular, mRNA expression in mice of tumour necrosis factor-alpha (TNF-α), interferon gamma (IFN-[…]γ), colonic interleukin (IL)-1, IL-2, IL-10, IL-12 p40, RANTES, cyclooxygenase (COX)-1, COX-2, constitutive endothelial nitric oxide synthase (eNOS), and inducible NOS (iNOS) was measured as described in Wallace et al. (1999) Gastroenterology 117: 557-566, incorporated herein by reference.
Briefly, reverse transcription-polymerase chain reaction (RT-PCR) was used to detect and quantify mRNA of the particular cytokine/chemokine/enzyme. Glyceraldehyde-3-phosphate dehydrogenase (GAPDH) was used as the “housekeeping gene” for mRNA expression (i.e., as an internal control). For each sample, the ratio of the amplification of the target gene to the amplification of GAPDH (expression of each is measured by performing densitometry on gels) was obtained. Comparisons were then made between the relative amplification (expression) of the target gene in tissues for the treatment groups in comparison to the expression in tissues from healthy controls. Thus, the data shown in FIGS. 7-14 represent the relative expression of the target gene (normalized to GAPDH expression) as a ratio to the expression in healthy controls.

[1] = test system: visceral pain in response to colorectal distension; experiment: Rat model of visceral pain perception (colorectal distension, AWR score); type: in vivo, Rats (male, Wistar)
Description: A rat model of visceral pain perception, a pre-clinical model of irritable bowel syndrome, was used in the following example. Rats (male, Wistar, 200-250 g, obtained from Charles River, Monza, Italy), were housed in plastic cages and maintained under controlled conditions with 12-hours light/dark cycle with lights on at 7.00 AM. Tap water and standard laboratory chow were freely available. Before experiments, rats were individually trained by spending 2-3 hours per day in a plexiglass cage for 2-3 days. It allowed them to adjust to a movement-restriction environment. Food was withheld for 12 hours before colorectal distension (CRD) recording were performed. Experiments were performed in awake rats and were conducted in a blind manner in that the observer was not aware of the identity of drug administered to each animal.
In the testing day, rats were sedated with ether inhalation and a 2 cm long latex balloon was inserted intrarectally 2 cm from the anal verge and fixed at the base of the tail. The balloon was connected via a double-barreled cannula to a pressure transducer to continuously monitoring the rectal pressure by a computer (PowerLab PC, A.D. Instruments, Milford, Mass., USA) and to a syringe for inflation/deflation of the balloon. The rats were then housed in a small cage (20×8×8 cm) on an elevated Plexiglas™ platform and allowed to wake up and adapt for 1 hour. After recovery from sedation, animals underwent the CRD procedure and behavioral responses were tested. The night before the experiments, the balloons were inflated and left overnight so the latex stretched and the balloons became compliant.
CRD of 20 seconds, performed every 5 minutes, was applied in increment of 0.4 ml starting from 0.4 ml up to 1.6 ml water. To achieve an accurate measurement of the colonic parameters and perception, the distensions were repeated twice for each intensity and data for each animal were averaged for analysis. Each animal underwent a double set of CRD. Twenty minutes after the first sequence of CRD (0.4 mL-1.6 ml water), drugs were administered intraperitoneally (i.p.) and a second set of CRD was performed. Behavioral responses during the first and the second set of CRD were assessed and compared.
Behavioral response to CRD was assessed by measuring the abdominal withdrawal reflex (AWR) using a semiquantitative score (1).
The effects of mesalamine and Compound XXXV on colonic compliance and sensitivity were determined using a total of 8 fasting rats. To investigate whether the administration of mesalamine and Compound XXXV could revert pain induced by CRD, after the first sequence of CRD, […], after which a second set of CRD was repeated.
To determine the effect of mesalamine or Compound XXXV on colonic smooth muscle, the compliance of the colo-rectum during CRD was obtained from intracolo-rectal volume and pressure and expressed as mL/mmHg.
All data are presented as the mean±SEM, with sample sizes of 4 rats/group; statistical comparison of paired data was performed by the Wilcoxon signed rank test. An associated probability (p value) of less that 5% was considered significant.
A rat model of visceral pain perception as described above was used to compare pain perception scores for both Compound XXXV and Compound XXVII with or without glibenclamide, an inhibitor of ATP-sensitive K^+ (KATP) channels.

**Q.** Which results are given for `Nc1ccc(O)c(C(=O)Oc2ccc(-c3cc(=S)ss3)cc2)c1` [Compound XXXV, 5-Amino-2-hydroxy-benzoic acid 4-(5-thioxo-5H-[1,2]dithiol-3-yl)-phenyl ester]?
**A.** COX-1 mRNA expression (COX-1 mRNA): suppressed; intrarectal pressure ([1]; 100 mg/kg i.p., FIG. 16(b)): successfully reduced intrarectal pressure; perception score (visceral pain in response to colorectal distension) ([1]; 100 mg/kg i.p., second set of CRD vs first, FIG. 15): more effective than mesalamine (and vehicle) in reducing visceral pain; pain perception score after glibenclamide pretreatment ([1]; 0.8 mL colorectal distention, 100 mg/kg, glibenclamide 10 mg/kg i.p. 30 min before, FIG. 17): reversed by pretreatment with glibenclamide; pain perception score ([1]; 0.8 mL colorectal distention, 100 mg/kg, vs vehicle-treated group, FIG. 17): significantly reduced the pain perception; pain perception ([1]; equimolar doses: mesalamine 50, Compound XXXV 130, ADT-OH 80, Compound XXVII 100, 4-HTB 50 mg/kg, vs vehicle-treated group): significantly reduced pain perception
